This is an account of results in patent US7964624B1, “Inhibitors of serine proteases” (priority 2005, dated 2011).

Read-outs that look alike come from different tables or passages of the source.

The assay addresses T1, full-length hepatitis C viral protein NS3•4A (Hepatitis C virus genotype 1a, UniProt P27958).
T1 construct: hexa-histidine (N); made in house; host or cells: Sf9 insect cells (baculovirus, pVL1392)
Nature of the assay: biochemical. Also on record: species or system HCV sub-type strain 1a.

[1] abbreviates: Enzyme Assay 2 (HCV NS3 Peptide Cleavage Assay) activity, apparent Ki class.
[2] abbreviates: Enzyme Assay 2, HCV NS3 Peptide Cleavage Assay, apparent Ki.

For `COc1c(C)cc(C2=NO[C@]3(C2)C[C@@H](C(=O)N[C@@H](CC2CC2)C(=O)C(N)=O)N(C(=O)[C@@H](NC(=O)CC2CCCCCC2)C(C)(C)C)C3)cc1C` [Compound 730], the Ki under setting [1] is less than 100 nM.
Same read-out and setting: in the case of `CCC[C@H](NC(=O)[C@@H]1C[C@]2(CC(c3cc(C)c(OC)c(C)c3)=NO2)CN1C(=O)[C@@H](NC(=O)CC(C)(C)C)C(C)(C)C)C(=O)C(N)=O` [Compound 733] it was less than 100 nM; in that of `CNC(=O)C(=O)[C@H](CC1CC1)NC(=O)[C@@H]1C[C@]2(CC(c3cccc(Cl)c3)=NO2)CN1C(=O)[C@@H](NC(=O)[C@H]1C[C@@H]1c1cccs1)C(C)(C)C` [Compound 739], less than 100 nM; in that of `CNC(=O)C(=O)[C@H](CC1CCC1)NC(=O)[C@@H]1C[C@]2(CC(c3cccc(Cl)c3)=NO2)CN1C(=O)[C@@H](NC(=O)CC1CCCCC1)C(C)(C)C` [Compound 741], less than 100 nM.
On the same count and under the same terms, in the case of `CNC(=O)C(=O)[C@H](CC1CC1)NC(=O)[C@@H]1C[C@]2(CC(c3cc(Cl)c(OC)cc3OC)=NO2)CN1C(=O)[C@@H](NC(=O)OC1CCCC1)C(C)(C)C` [Compound 744] it was less than 100 nM; in that of `COc1cc(OC)c(C2=NO[C@]3(C2)C[C@@H](C(=O)N[C@@H](CC2CC2)C(=O)C(=O)NC2CC2)N(C(=O)[C@@H](NC(=O)OC(C)(C)C)C(C)(C)C)C3)cc1Cl` [Compound 745], less than 100 nM.
Turning to `CNC(=O)C(=O)[C@H](CC1CC1)NC(=O)C1C[C@]2(CC(c3cccc(Cl)c3)=NO2)CN1C(=O)[C@@H](NC(=O)C1CCC1)C(C)(C)C` (stereo partly shown) [Compound 749], the Ki under setting [1] is less than 100 nM.
`CNC(=O)C(=O)[C@H](CC1CC1)NC(=O)[C@@H]1C[C@]2(CC(c3cccc(Cl)c3)=NO2)CN1C(=O)[C@@H](NC(=O)[C@H]1C[C@@H]1C(C)C)C(C)(C)C` [Compound 755]: the Ki under setting [1] was less than 100 nM.
Take `COc1c(C)cc(C2=NO[C@]3(C2)C[C@@H](C(=O)N[C@@H](CC2CC2)C(=O)C(=O)NC2CC2)N(C(=O)[C@@H](NC(=O)OC(C)(C)C)C(C)(C)C)C3)cc1C` [Compound 757]: the Ki under setting [1] is less than 100 nM.
Take `CCC[C@H](NC(=O)[C@@H]1C[C@]2(CC(c3cc(C)c(OC)c(C)c3)=NO2)CN1C(=O)[C@@H](NC(=O)OC1CCCC1)C(C)(C)C)C(=O)C(N)=O` [Compound 760]: the Ki under setting [1] is less than 100 nM.
Same read-out and setting: next, `COc1c(C)cc(C2=NO[C@]3(C2)C[C@@H](C(=O)N[C@@H](CC2CC2)C(=O)C(=O)NC2CC2)N(C(=O)[C@@H](NC(=O)CC2CCCCC2)C(C)(C)C)C3)cc1C` [Compound 764]: 100 to 500 nM; `CNC(=O)C(=O)C(CC1CC1)NC(=O)[C@@H]1C[C@]2(CC(c3cc(C)c(OC)c(C)c3)=NO2)CN1C(=O)[C@@H](NC(=O)OC1CCCC1)C(C)(C)C` (stereo partly shown) [Compound 768]: 100 to 500 nM; `COc1c(C)cc(C2=NO[C@]3(C2)C[C@@H](C(=O)NC(CC2CC2)C(=O)C(N)=O)N(C(=O)[C@@H](NC(=O)OC2CCCC2)C(C)(C)C)C3)cc1C` (stereo partly shown) [Compound 769]: 100 to 500 nM.
With `CCC[C@H](NC(=O)[C@@H]1C[C@]2(CC(c3ccc(NC)c(Cl)c3)=NO2)CN1C(=O)[C@@H](NC(=O)CC1CCCCC1)C(C)(C)C)C(=O)C(=O)NC1CC1` [Compound 771], under setting [1], the Ki was less than 100 nM.
Still for that read-out and setting: in the case of `CCC[C@H](NC(=O)[C@@H]1C[C@]2(CC(c3cccc(Cl)c3)=NO2)CN1C(=O)[C@@H](NC(=O)CC(C)(C)OC)C(C)(C)C)C(=O)C(=O)NC1CC1` [Compound 772] it was less than 100 nM; in that of `CNC(=O)C(=O)[C@H](CC1CC1)NC(=O)[C@@H]1C[C@]2(CC(c3cccc(Cl)c3)=NO2)CN1C(=O)[C@@H](NC(=O)CC(C)(C)OC)C(C)(C)C` [Compound 773], 100 to 500 nM.
For the compound `CNC(=O)C(=O)[C@H](CC1CC1)NC(=O)[C@@H]1C[C@]2(CC(c3cccc(Cl)c3)=NO2)CN1C(=O)[C@@H](NC(=O)CC1CC2CCC1C2)C(C)(C)C` (stereo partly shown) [Compound 777], the Ki (read-out: Enzyme Assay 2 (HCV NS3 Peptide Cleavage Assay) activity, apparent Ki class) was less than 100 nM.
Take `CCC[C@H](NC(=O)[C@@H]1C[C@]2(CC(c3cccc(Cl)c3)=NO2)CN1C(=O)[C@@H](NC(=O)CC1CC2CCC1C2)C(C)(C)C)C(=O)C(N)=O` (stereo partly shown) [Compound 779]: the Ki under setting [1] was less than 100 nM.
Same read-out and setting: next, `CCC[C@H](NC(=O)[C@@H]1C[C@]2(CC(c3cc(C)c(OCC)c(Cl)c3)=NO2)CN1C(=O)[C@@H](NC(=O)OC1CCCC1)C(C)(C)C)C(=O)C(=O)NC` [Compound 785]: less than 100 nM; `CCC[C@H](NC(=O)[C@@H]1C[C@]2(CC(c3cccc(Cl)n3)=NO2)CN1C(=O)[C@@H](NC(=O)CC1CCCCC1)C(C)(C)C)C(=O)C(=O)NC1CC1` [Compound 786]: 100 to 500 nM; `CNC(=O)C(=O)[C@H](CC1CC1)NC(=O)[C@@H]1C[C@]2(CC(c3cc(C)c(OC)c(C)c3)=NO2)CN1C(=O)[C@@H](NC(=O)CC1CCCCC1)C(C)(C)OC` [Compound 788]: less than 100 nM.
For the compound `CNC(=O)C(=O)[C@H](CC1CC1)NC(=O)[C@@H]1C[C@]2(CC(c3cc(C)c(OC)c(C)c3)=NO2)CN1C(=O)[C@@H](NC(=O)[C@@H]1CC1c1ccccc1)C(C)(C)C` (stereo partly shown) [Compound 798], the Ki under setting [2] is less than 100 nM.
The same measure, in the same setting: in the case of `CCC[C@H](NC(=O)[C@@H]1C[C@]2(CC(c3cc(Cl)c(OC)cc3OC)=NO2)CN1C(=O)[C@@H](NC(=O)[C@@H]1CC1c1ccccc1)C(C)(C)C)C(=O)C(N)=O` (stereo partly shown) [Compound 801] it was less than 100 nM; in that of `CCC[C@H](NC(=O)[C@@H]1C[C@]2(CC(c3cc(Cl)ccc3N(C)C)=NO2)CN1C(=O)[C@@H](NC(=O)CC1CCCCC1)C(C)(C)C)C(=O)C(=O)NC1CC1` [Compound 803], 100 to 500 nM; in that of `CC(C)(C)[C@H](NC(=O)[C@H]1C[C@@H]1c1ccccc1)C(=O)N1C[C@@]2(CC(c3cccc4cccnc34)=NO2)C[C@H]1C(=O)N[C@@H](CC1CC1)C(=O)C(N)=O` [Compound 805], less than 100 nM.
With `CC(C)(C)[C@H](NC(=O)[C@@H]1C[C@H]1c1ccccc1)C(=O)N1C[C@@]2(CC(c3cccc4cccnc34)=NO2)C[C@H]1C(=O)N[C@@H](CC1CC1)C(=O)C(N)=O` [Compound 806], the Ki under setting [2] was less than 100 nM.
Still for that read-out and setting: in the case of `CNC(=O)C(=O)[C@H](CC1CC1)NC(=O)[C@@H]1C[C@]2(CC(c3cccc4cccnc34)=NO2)CN1C(=O)[C@@H](NC(=O)[C@H]1C[C@@H]1c1ccccc1)C(C)(C)C` [Compound 807] it was 100 to 500 nM; in that of `COc1c(C)cc(C2=NO[C@]3(C2)C[C@@H](C(=O)N[C@@H](CC2CC2)C(=O)C(N)=O)N(C(=O)[C@@H](NC(=O)[C@@H]2C[C@H]2c2ccccc2)C(C)(C)C)C3)cc1Cl` [Compound 811], less than 100 nM.
With `CCOc1c(C)cc(C2=NO[C@]3(C2)C[C@@H](C(=O)N[C@@H](CC2CC2)C(=O)C(=O)NC)N(C(=O)[C@@H](NC(=O)OC2CCCC2)C(C)(C)C)C3)cc1Cl` [Compound 817], the Ki under setting [2] is less than 100 nM.
Same read-out and setting: in the case of `CCC[C@H](NC(=O)[C@@H]1C[C@]2(CC(c3cc(Cl)c(OCC)cc3OC)=NO2)CN1C(=O)[C@@H](NC(=O)CC1CCCCC1)C(C)(C)C)C(=O)C(=O)NC1CC1` [Compound 818] it was less than 100 nM; in that of `CCC[C@H](NC(=O)[C@@H]1C[C@]2(CC(c3cc(Cl)c(C)cc3OC)=NO2)CN1C(=O)[C@@H](NC(=O)CC1CCCCC1)C(C)(C)C)C(=O)C(=O)NC1CC1` [Compound 820], less than 100 nM.
Turning to `CCC[C@H](NC(=O)[C@@H]1C[C@]2(CC(c3cccc(Cl)c3)=NO2)CN1C(=O)[C@@H](NC(=O)C1(C#N)CC1)C(C)(C)C)C(=O)C(=O)NC1CC1` [Compound 823], the Ki under setting [2] was less than 100 nM.
Regarding `CCC[C@H](NC(=O)[C@@H]1C[C@]2(CC(c3cccc(Cl)c3)=NO2)CN1C(=O)[C@@H](NC(=O)[C@H]1CC12CCOCC2)C(C)(C)C)C(=O)C(=O)NC1CC1` [Compound 826], under setting [2], the Ki was less than 100 nM.
For `CCC[C@H](NC(=O)[C@@H]1C[C@]2(CC(c3cc(C)c(OCC)c(C)c3)=NO2)CN1C(=O)[C@@H](NC(=O)[C@@H]1C[C@H]1c1ccccc1)C(C)(C)C)C(=O)C(=O)NC` [Compound 828], the Ki under setting [2] is less than 100 nM.
On the same count and under the same terms, next, `CNC(=O)C(=O)[C@H](CC1CC1)NC(=O)[C@@H]1C[C@]2(CC(c3cccc(Cl)c3)=NO2)CN1C(=O)[C@@H](NC(=O)[C@@H]1C[C@H]1c1c[nH]cn1)C(C)(C)C` [Compound 832]: 100 to 500 nM.
In the case of `CNC(=O)C(=O)[C@H](CC1CC1)NC(=O)[C@@H]1C[C@]2(CC(c3cccc(Cl)c3)=NO2)CN1C(=O)[C@@H](NC(=O)[C@H]1C[C@@H]1c1c[nH]cn1)C(C)(C)C` [Compound 833], the Ki under setting [2] was less than 100 nM.
Still for that read-out and setting: next, `CCNC(=O)C(=O)[C@H](CC1CC1)NC(=O)[C@@H]1C[C@]2(CC(c3cccc(Cl)c3)=NO2)CN1C(=O)[C@@H](NC(=O)CC1CCCCC1)C(C)(C)C` [Compound 836]: less than 100 nM; `CCNC(=O)C(=O)[C@H](CC1CC1)NC(=O)[C@@H]1C[C@]2(CC(c3cc(C)c(OC)c(C)c3)=NO2)CN1C(=O)[C@@H](NC(=O)[C@@H]1CC1c1ccccc1)C(C)(C)C` (stereo partly shown) [Compound 845]: less than 100 nM.
The same measure, in the same setting: next, `CNC(=O)C(=O)[C@H](CC1CC1)NC(=O)[C@@H]1C[C@]2(CC(c3cccc(Cl)c3)=NO2)CN1C(=O)[C@@H](NC(=O)[C@@H]1CC12CCCCC2)C(C)(C)C` [Compound 850]: less than 100 nM.
Regarding `CNC(=O)C(=O)[C@H](CC1CC1)NC(=O)[C@@H]1C[C@]2(CC(c3cccc(Cl)c3)=NO2)CN1C(=O)[C@@H](NC(=O)OC1CCC1)C(C)(C)C` [Compound 851], the Ki under setting [2] was less than 100 nM.
`CCNC(=O)C(=O)[C@H](CC1CC1)NC(=O)[C@@H]1C[C@]2(CC(c3cc(C)c(OC)c(Cl)c3)=NO2)CN1C(=O)[C@@H](NC(=O)[C@@H]1C[C@H]1c1ccccc1)C(C)(C)C` [Compound 856]: the Ki under setting [2] was less than 100 nM.
For `CCC[C@H](NC(=O)[C@@H]1C[C@]2(CC(c3cc(C)c(OCC)c(C)c3)=NO2)CN1C(=O)[C@@H](NC(=O)OC1CCCC1)C(C)(C)C)C(=O)C(=O)NC1CC1` [Compound 860], under setting [2], the Ki was less than 100 nM.
The same measure, in the same setting: next, `CNC(=O)C(=O)[C@H](CC1CC1)NC(=O)[C@@H]1C[C@]2(CC(c3cccc(Cl)c3)=NO2)CN1C(=O)[C@@H](NC(=O)[C@@H]1C[C@H]1c1ccccc1OC)C(C)(C)C` [Compound 867]: less than 100 nM.
